Test results: patent US11319303B2 (WIGEN BIOMEDICINE TECHNOLOGY (SHANGHAI) CO., LTD., priority 2017, dated 2022)
pIC50: −log10 of the molar value.

Biological target: LC3B (Homo sapiens, UniProt Q9GZQ8)
Test: Fluorescence Polarization (FP) Assay: displacement of FITC-labeled peptide from GST-LC3B
Format: binding
Settings: not given
Protocol: The compounds of the present invention for regulating the autophagy-related protein LC3B were tested by Fluorescence Polarization (FP) Assay.
Fluorescence Polarization (FP) Assay Test

| Compound | pIC50 |
| --- | --- |
| CN(C)CCNC=C1C(=O)CC(c2cccc(F)c2F)CC1=O (centres unmarked) [Compound 304, 5-(2,3-difluorophenyl)-2-(((2-(dimethylamino)ethyl)amino)methylene) cyclohexane-1,3-dione] | > 5.52 |
| CN(C)CCNC=C1C(=O)CC(c2cccnc2Br)CC1=O (centres unmarked) [Compound 338, 5-(2-bromopyridin-3-yl)-2-(((2-(dimethylamino)ethyl)amino)methylene) cyclohexane-1,3-dione] | > 5.52 |
| CN(C)CCNC=C1C(=O)CC(c2cccc(F)c2Br)CC1=O (centres unmarked) [Compound 350, 5-(2-bromo-3-fluorophenyl)-2-(((2-(dimethylamino)ethyl)amino)methylene) cyclohexane-1,3-dione] | > 5.52 |

Same assay, conditions: Fluorescence Polarization assay; GST-LC3B 180 nM, FITC-labeled peptide 18 nM, 25° C.; read-out: IC50

| Compound | pIC50 |
| --- | --- |
| CN(C)CCNC=C1C(=O)CC(c2cc(F)ccc2F)CC1=O (centres unmarked) [Compound 302, 5-(2,5-difluorophenyl)-2-(((2-(dimethylamino)ethyl)amino)methylene) cyclohexane-1,3-dione] | > 5.52 |
| CN(C)CCNC=C1C(=O)CC(c2ccc(F)cc2Br)CC1=O (centres unmarked) [Compound 305, 5-(2-bromo-4-fluorophenyl)-2-(((2-(dimethylamino)ethyl)amino)methylene) cyclohexane-1,3-dione] | > 5.52 |
| CN(C)CCNC=C1C(=O)CC(c2c(F)cccc2Br)CC1=O (centres unmarked) [Compound 306, 5-(2-bromo-6-fluorophenyl)-2-(((2-(dimethylamino)ethyl)amino)methylene) cyclohexane-1,3-dione] | > 5.52 |
| O=C1CC(c2ccccc2)CC(=O)C1=CNC(=O)c1ccccn1 (centres unmarked) [Compound 307, N-((2,6-dioxo-4-phenylcyclo-hexylidene)methyl) picolinamide] | 4.82 to 5.52 |
| CN(C)CCNC=C1C(=O)CC(c2ccccc2O)CC1=O (centres unmarked) [Compound 308, 2-(((2-(dimethylamino)ethyl)amino)methylene)-5-(2-hydroxyphenyl) cyclohexane-1,3-dione] | 4.82 to 5.52 |
| COc1ccccc1C1CC(=O)C(=CNCCN(C)C)C(=O)C1 (centres unmarked) [Compound 310, 2-(((2-(dimethylamino)ethyl)amino)methylene)-5-(2-methoxyphenyl) cyclohexane-1,3-dione] | > 5.52 |
| CN(C)CCNC=C1C(=O)CC(c2cccc([N+](=O)[O-])c2)CC1=O (centres unmarked) [Compound 311, 2-(((2-(dimethylamino)ethyl)amino)methylene)-5-(3-nitrophenyl) cyclohexane-1,3-dione] | > 5.52 |
| O=C1CC(c2ccc3cc[nH]c3c2)CC(=O)C1=CNCCN1CCN(CCO)CC1 (centres unmarked) [Compound 315, 2-(((2-(4-(2-hydroxyethyl)piperazin-1-yl)ethyl)amino)methylene)-5-(1H-indol-6-yl)cyclohexane-1,3-dione] | > 5.52 |
| O=C1Nc2ccc(C(F)(F)F)cc2C(=O)/C1=C/NCCN1CCN(CCO)CC1 [Compound 317, 3-(((2-(4-(2-hydroxyethyl)piperazin-1-yl)ethyl)amino)methylene)-6-(trifluoromethyl) quinoline-2,4(1H,3H)-dione] | 4.82 to 5.52 |
| O=C1Nc2c(cccc2[N+](=O)[O-])C(=O)/C1=C/NCCN1CCN(CCO)CC1 [Compound 318, 3-(((2-(4-(2-hydroxyethyl)piperazin-1-yl)ethyl)amino)methylene)-8-nitroquinoline-2,4(1H,3H)-dione] | > 5.52 |
| O=C1CC(c2ccccc2C(F)(F)F)CC(=O)C1=CNCCN1CCN(CCO)CC1 (centres unmarked) [Compound 320, 2-(((2-(4-(2-hydroxyethyl)piperazin-1-yl)ethyl)amino)methylene)-5-(2-(trifluoromethyl)phenyl) cyclohexane-1,3-dione] | > 5.52 |
| O=C1Nc2c(cccc2-c2ccccc2)C(=O)/C1=C\NCCN1CCN(CCO)CC1 [Compound 321, 3-(((2-(4-(2-hydroxyethyl)piperazin-1-yl)ethyl)amino)methylene)-8-phenylquinoline-2,4(1H,3H)-dione] | 4.82 to 5.52 |
| O=C1CC(c2cccc3[nH]cc(Cl)c23)CC(=O)C1=CNCCN1CCN(CCO)CC1 (centres unmarked) [Compound 322, 5-(3-chloro-1H-indol-4-yl)-2-(((2-(4-(2-hydroxyethyl)piperazin-1-yl)ethyl)amino)methylene) cyclohexane-1,3-dione] | > 5.52 |
| O=C1CC(c2ccccc2)C(c2ccccc2)C(=O)C1=CNCCN1CCN(CCO)CC1 (centres unmarked) [Compound 323, 2-(((2-(4-(2-hydroxyethyl)piperazin-1-yl)ethyl)amino)methylene)-4,5-diphenylcyclo-hexane-1,3-dione] | 4.82 to 5.52 |
| CC1(C)C(=O)C(=CNCCN2CCN(CCO)CC2)C(=O)CC1c1ccccc1 (centres unmarked) [Compound 324, 2-(((2-(4-(2-hydroxyethyl)piperazin-1-yl)ethyl)amino)methylene)-4,4-dimethyl-5-phenylcyclohexane-1,3-dione] | 4.82 to 5.52 |
| CC1C(=O)/C(=C/NCCN2CCN(CCO)CC2)C(=O)CC1(O)c1ccccc1 (centres unmarked) [Compound 325, 5-hydroxy-2-(((2-(4-(2-hydroxyethyl)piperazin-1-yl)ethyl)amino)methylene)-4-methyl-5-phenylcyclohexane-1,3-dione] | 4.00 to 4.82 |
| O=C(NCCN1CCN(CCO)CC1)C1C(=O)Nc2ccccc2C1=O (centres unmarked) [Compound 326, N-(2-(4-(2-hydroxyethyl)piperazin-1-yl)ethyl)-2,4-dioxo-1,2,3,4-tetrahydroquinoline-3-carboxamide] | 3.00 to 4.00 |
| N#CC1C(=O)C(=CNCCN2CCN(CCO)CC2)C(=O)CC1c1ccccc1 (centres unmarked) [Compound 327, 2-(((2-(4-(2-hydroxyethyl)piperazin-1-yl)ethyl)amino)methylene)-4-cyano-5-phenylcyclohexane-1,3-dione] | > 5.52 |

The remaining lines, values ahead:

| pIC50 | Compound |
| --- | --- |
| 4.82 to 5.52 | O=C1Nc2ccc(-c3ccccc3)cc2C(=O)/C1=C/NCCN1CCN(CCO)CC1 [Compound 328, 3-(((2-(4-(2-hydroxyethyl)piperazin-1-yl)ethyl)amino)methylene)-6-phenylquinoline-2,4(1H,3H)-dione] |
| > 5.52 | Cc1ccc(C2CC(=O)C(=CNCCN3CCN(CCO)CC3)C(=O)C2)c(Br)c1 (centres unmarked) [Compound 329, 5-(2-bromo-4-methylphenyl)-2-(((2-(4-(2-hydroxyethyl)piperazin-1-yl)ethyl)amino)methylene) cyclohexane-1,3-dione] |
| 4.82 to 5.52 | CCOC(=O)C1C(=O)/C(=C\NCCN2CCN(CCO)CC2)C(=O)CC1c1cccc2[nH]ccc12 (centres unmarked) [Compound 330, ethyl 3-(((2-(4-(2-hydroxyethyl)piperazin-1-yl)ethyl)amino)methylene)-6-(1H-indol-4-yl)-2,4-dioxocyclohexane-1-carboxylate] |
| > 5.52 | O=C1Nc2c(ccc3ccccc23)C(=O)/C1=C\NCCN1CCN(CCO)CC1 [Compound 331, 3-(((2-(4-(2-hydroxyethyl)piperazin-1-yl)ethyl)amino)methylene) benzo[h]quinoline-2,4(1H,3H)-dione] |
| > 5.52 | CN(C)c1ccc(Br)c(C2CC(=O)C(=CNCCN3CCN(CCO)CC3)C(=O)C2)c1 (centres unmarked) [Compound 332, 5-(2-bromo-5-(dimethylamino)phenyl)-2-(((2-(4-(2-hydroxyethyl)piperazin-1-yl)ethyl)amino)methylene) cyclohexane-1,3-dione] |
| 4.00 to 4.82 | NC(=O)C1C(=O)C(=CNCCN2CCN(CCO)CC2)C(=O)CC1c1ccccc1 (centres unmarked) [Compound 333, 3-(((2-(4-(2-hydroxyethyl)piperazin-1-yl)ethyl)amino)methylene)-2,4-dioxo-6-phenylcyclohexane-1-carboxamide] |
| 4.82 to 5.52 | CC(C)(C)OC(=O)C1C(=O)C(=CNCCN2CCN(CCO)CC2)C(=O)CC1c1ccccc1 (centres unmarked) [Compound 334, tert-butyl 3-(((2-(4-(2-hydroxyethyl)piperazin-1-yl)ethyl)amino)methylene)-2,4-dioxo-6-phenylcyclohexane-1-carboxylate] |
| 4.82 to 5.52 | CCOC(=O)C1C(=O)C(=CNCCN2CCN(CCO)CC2)C(=O)CC1c1ccccc1 (centres unmarked) [Compound 335, ethyl 3-(((2-(4-(2-hydroxyethyl)piperazin-1-yl)ethyl)amino)methylene)-2,4-dioxo-6-phenylcyclohexane-1-carboxylate] |
| 4.82 to 5.52 | CC1(C#N)C(=O)C(=CNCCN2CCN(CCO)CC2)C(=O)CC1c1ccccc1 (centres unmarked) [Compound 336, 3-(((2-(4-(2-hydroxyethyl)piperazin-1-yl)ethyl)amino)methylene)-1-methyl-2,4-dioxo-6-phenylcyclohexane-1-carbonitrile] |
| > 5.52 | COc1cccc(C2CC(=O)C(=CNCCN(C)C)C(=O)C2)c1 (centres unmarked) [Compound 337, 2-(((2-(dimethylamino)ethyl)amino)methylene)-5-(3-methoxyphenyl) cyclohexane-1,3-dione] |
| > 5.52 | CN(C)CCNC=C1C(=O)CC(c2ccc([N+](=O)[O-])cc2)CC1=O (centres unmarked) [Compound 340, 2-(((2-(dimethylamino)ethyl)amino)methylene)-5-(4-nitrophenyl) cyclohexane-1,3-dione] |
| 4.82 to 5.52 | CN(C)CCNC=C1C(=O)CC(C(=O)Nc2ccccc2)CC1=O (centres unmarked) [Compound 343, 4-(((2-(dimethylamino)ethyl)amino)methylene)-3,5-dioxo-N-phenylcyclohexane-1-carboxamide] |
| 4.82 to 5.52 | CN(C)CCNC=C1C(=O)CC(c2ccccc2N2CCOCC2)CC1=O (centres unmarked) [Compound 344] |
| 4.82 to 5.52 | CC(=O)Nc1ccccc1C1CC(=O)C(=CNCCN(C)C)C(=O)C1 (centres unmarked) [Compound 345, N-(2-(4-(((2-(dimethylamino)ethyl)amino)methylene)-3,5-dioxocyclohexyl)phenyl) acetamide] |
| > 5.52 | CN(C)CCNC=C1C(=O)CC(c2cc(F)ccc2Br)CC1=O (centres unmarked) [Compound 349, 5-(2-bromo-5-fluorophenyl)-2-(((2-(dimethylamino)ethyl)amino)methylene) cyclohexane-1,3-dione] |
| > 5.52 | CN(C)CCNC=C1C(=O)CC(c2cc(F)ccc2Cl)CC1=O (centres unmarked) [Compound 351, 5-(2-chloro-5-fluorophenyl)-2-(((2-(dimethylamino)ethyl)amino)methylene) cyclohexane-1,3-dione] |
| 3.00 to 4.00 | O=C1CCCCC(=O)C1=CNCCN1CCN(CCO)CC1 [Compound 352, 2-(((2-(4-(2-hydroxyethyl)piperazin-1-yl)ethyl)amino)methylene) cycloheptane-1,3-dione] |
